Assay [1] has as its system battery of selected protein kinases. The experiment in a line: In vitro screen of a battery of selected protein kinases (summary statement). The format is biochemical. As to conditions: BTK, BMX, ABL, ABL(E255K), SRC, ACK, ARG, BLK, DDR2, EPHA, FGR, FMS, FRK, FYN, HCK, LCK, LYN, PDGFRα, PDGFRβ, YES, PIK3CA/PIK3R1, among others.
The target in assay [2] is T1, DDR2 (Homo sapiens, UniProt Q16832).
T1 construct: purchased Carna Biosciences, Inc
T1 sequence (Q16832 22-855): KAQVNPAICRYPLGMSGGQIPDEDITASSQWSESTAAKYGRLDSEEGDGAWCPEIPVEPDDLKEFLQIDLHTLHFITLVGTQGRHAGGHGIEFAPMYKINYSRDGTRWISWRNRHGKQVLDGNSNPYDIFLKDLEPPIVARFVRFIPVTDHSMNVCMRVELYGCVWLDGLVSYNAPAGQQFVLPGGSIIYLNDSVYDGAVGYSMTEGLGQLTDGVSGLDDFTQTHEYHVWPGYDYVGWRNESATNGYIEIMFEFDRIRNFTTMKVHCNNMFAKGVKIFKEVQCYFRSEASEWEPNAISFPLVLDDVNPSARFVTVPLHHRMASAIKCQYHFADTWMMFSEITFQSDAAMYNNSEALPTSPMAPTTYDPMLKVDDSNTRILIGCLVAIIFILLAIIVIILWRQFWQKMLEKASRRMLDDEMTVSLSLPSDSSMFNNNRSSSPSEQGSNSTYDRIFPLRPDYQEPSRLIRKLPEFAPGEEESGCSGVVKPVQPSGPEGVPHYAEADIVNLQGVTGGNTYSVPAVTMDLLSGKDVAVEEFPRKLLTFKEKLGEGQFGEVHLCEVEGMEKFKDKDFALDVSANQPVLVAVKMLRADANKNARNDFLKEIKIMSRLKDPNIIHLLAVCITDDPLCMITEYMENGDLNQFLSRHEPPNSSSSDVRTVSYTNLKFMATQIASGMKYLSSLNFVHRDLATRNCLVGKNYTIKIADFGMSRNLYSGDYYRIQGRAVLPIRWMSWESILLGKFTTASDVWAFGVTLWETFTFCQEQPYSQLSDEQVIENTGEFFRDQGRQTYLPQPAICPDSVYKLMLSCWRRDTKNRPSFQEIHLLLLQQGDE
The experiment in a line: Off-chip Mobility Shift Assay, kinase inhibition. As to conditions: at 10 nM; recombinant DDR2; read-out: inhibition. The format is biochemical.

The target in assay [3] is T2, ARG (Homo sapiens, UniProt P42684).
T2 construct: purchased Carna Biosciences, Inc
The assay can be described thus: Off-chip Mobility Shift Assay, kinase inhibition. The format is biochemical. Conditions: at 10 nM; recombinant ARG; read-out: inhibition.

The subject of assay [4] is SU-DHL-4. The assay can be described thus: Cell inhibition assay (PrestoBlue, 48 h). Conditions: Homo sapiens, SU-DHL-4, 48 h, SU-DHL-4 diffuse large B-cell lymphoma cells, read-out: IC50, inhibition of growth. Type of assay: cell-based.
The target in assay [5] is T3, BMX (Homo sapiens, UniProt P51813).
T3 construct: purchased Carna Biosciences, Inc
T3 sequence (P51813 1-675): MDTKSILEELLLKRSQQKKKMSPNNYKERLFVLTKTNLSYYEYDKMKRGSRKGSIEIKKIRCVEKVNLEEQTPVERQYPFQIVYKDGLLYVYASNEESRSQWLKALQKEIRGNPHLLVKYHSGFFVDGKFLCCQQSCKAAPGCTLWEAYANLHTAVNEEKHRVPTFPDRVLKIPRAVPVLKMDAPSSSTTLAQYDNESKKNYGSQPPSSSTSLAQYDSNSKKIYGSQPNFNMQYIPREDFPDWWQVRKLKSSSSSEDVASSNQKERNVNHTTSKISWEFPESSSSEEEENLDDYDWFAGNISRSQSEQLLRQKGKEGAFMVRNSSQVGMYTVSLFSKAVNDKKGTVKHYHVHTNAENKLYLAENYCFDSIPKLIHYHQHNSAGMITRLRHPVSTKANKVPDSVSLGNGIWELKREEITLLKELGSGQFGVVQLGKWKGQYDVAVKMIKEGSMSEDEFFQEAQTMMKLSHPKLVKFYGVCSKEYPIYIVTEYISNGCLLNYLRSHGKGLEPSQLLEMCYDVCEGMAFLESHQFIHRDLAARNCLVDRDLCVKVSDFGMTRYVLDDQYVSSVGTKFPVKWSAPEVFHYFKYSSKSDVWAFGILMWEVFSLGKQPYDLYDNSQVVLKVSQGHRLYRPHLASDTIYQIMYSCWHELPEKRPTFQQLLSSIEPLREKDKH
The experiment in a line: Off-chip Mobility Shift Assay, kinase inhibition. As to conditions: recombinant BMX; for inhibition at 0.001 µM: at 1 nM; for inhibition at 0.01 µM: at 10 nM. Type of assay: biochemical.

Assay [6] concerns the target T4, BLK (Homo sapiens, UniProt P51451).
T4 construct: purchased Carna Biosciences, Inc
The experiment in a line: Off-chip Mobility Shift Assay, kinase inhibition. Type of assay: biochemical. Conditions: at 10 nM; recombinant BLK.

The target of assay [7] is T5, FGR (Homo sapiens, UniProt P09769).
T5 construct: purchased Carna Biosciences, Inc
T5 sequence (P09769 whole entry): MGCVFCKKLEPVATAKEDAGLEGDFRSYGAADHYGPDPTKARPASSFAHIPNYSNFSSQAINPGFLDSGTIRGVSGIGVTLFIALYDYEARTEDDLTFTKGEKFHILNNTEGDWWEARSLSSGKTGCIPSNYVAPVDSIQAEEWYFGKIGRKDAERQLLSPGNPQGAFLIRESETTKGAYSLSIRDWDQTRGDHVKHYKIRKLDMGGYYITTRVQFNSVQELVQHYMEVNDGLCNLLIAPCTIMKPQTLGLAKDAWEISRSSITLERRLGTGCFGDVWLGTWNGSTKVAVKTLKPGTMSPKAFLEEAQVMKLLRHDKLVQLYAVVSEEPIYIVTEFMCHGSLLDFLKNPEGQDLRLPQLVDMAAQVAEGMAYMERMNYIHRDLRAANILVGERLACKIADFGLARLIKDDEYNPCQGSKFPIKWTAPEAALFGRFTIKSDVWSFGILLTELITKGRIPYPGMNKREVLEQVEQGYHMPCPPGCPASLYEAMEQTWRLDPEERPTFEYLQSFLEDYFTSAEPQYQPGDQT
The experiment in a line: Off-chip Mobility Shift Assay, kinase inhibition. The format is biochemical. As to conditions: at 10 nM; recombinant FGR; read-out: inhibition.

The target in assay [8] is T6, SRC (Homo sapiens, UniProt P12931).
T6 construct: purchased Carna Biosciences, Inc
T6 sequence (P12931 whole entry): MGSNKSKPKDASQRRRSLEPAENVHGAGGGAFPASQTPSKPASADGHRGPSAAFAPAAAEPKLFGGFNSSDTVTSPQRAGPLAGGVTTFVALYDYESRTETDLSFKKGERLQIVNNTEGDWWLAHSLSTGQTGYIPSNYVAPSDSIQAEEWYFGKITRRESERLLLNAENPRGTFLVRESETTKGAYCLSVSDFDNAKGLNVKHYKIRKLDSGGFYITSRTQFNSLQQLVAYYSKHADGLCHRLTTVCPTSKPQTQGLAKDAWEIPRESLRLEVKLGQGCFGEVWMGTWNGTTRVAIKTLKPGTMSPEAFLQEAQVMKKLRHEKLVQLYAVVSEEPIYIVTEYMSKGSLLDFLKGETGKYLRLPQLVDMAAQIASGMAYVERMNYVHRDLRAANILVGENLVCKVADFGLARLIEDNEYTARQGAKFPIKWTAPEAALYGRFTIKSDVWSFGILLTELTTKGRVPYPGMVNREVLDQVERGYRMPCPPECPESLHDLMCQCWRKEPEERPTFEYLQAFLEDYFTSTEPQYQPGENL
The experiment in a line: Off-chip Mobility Shift Assay, kinase inhibition. Type of assay: biochemical. Conditions: recombinant SRC; for inhibition at 0.001 µM: at 1 nM; for inhibition at 0.01 µM: at 10 nM.

Assay [9] addresses T7, PDGFRα (Homo sapiens, UniProt P16234).
T7 construct: purchased Carna Biosciences, Inc
The assay can be described thus: Off-chip Mobility Shift Assay, kinase inhibition. Type of assay: biochemical. As to conditions: at 10 nM; recombinant PDGFRα; read-out: inhibition.

Assay [10] has as its target T8, FMS (Homo sapiens, UniProt P07333).
T8 construct: purchased Carna Biosciences, Inc
The assay can be described thus: Off-chip Mobility Shift Assay, kinase inhibition. The format is biochemical. Conditions: at 10 nM; recombinant FMS.

In assay [11] the target is T9, PDGFRβ (Homo sapiens, UniProt P09619).
T9 construct: purchased Carna Biosciences, Inc
T9 sequence (P09619 33-1106): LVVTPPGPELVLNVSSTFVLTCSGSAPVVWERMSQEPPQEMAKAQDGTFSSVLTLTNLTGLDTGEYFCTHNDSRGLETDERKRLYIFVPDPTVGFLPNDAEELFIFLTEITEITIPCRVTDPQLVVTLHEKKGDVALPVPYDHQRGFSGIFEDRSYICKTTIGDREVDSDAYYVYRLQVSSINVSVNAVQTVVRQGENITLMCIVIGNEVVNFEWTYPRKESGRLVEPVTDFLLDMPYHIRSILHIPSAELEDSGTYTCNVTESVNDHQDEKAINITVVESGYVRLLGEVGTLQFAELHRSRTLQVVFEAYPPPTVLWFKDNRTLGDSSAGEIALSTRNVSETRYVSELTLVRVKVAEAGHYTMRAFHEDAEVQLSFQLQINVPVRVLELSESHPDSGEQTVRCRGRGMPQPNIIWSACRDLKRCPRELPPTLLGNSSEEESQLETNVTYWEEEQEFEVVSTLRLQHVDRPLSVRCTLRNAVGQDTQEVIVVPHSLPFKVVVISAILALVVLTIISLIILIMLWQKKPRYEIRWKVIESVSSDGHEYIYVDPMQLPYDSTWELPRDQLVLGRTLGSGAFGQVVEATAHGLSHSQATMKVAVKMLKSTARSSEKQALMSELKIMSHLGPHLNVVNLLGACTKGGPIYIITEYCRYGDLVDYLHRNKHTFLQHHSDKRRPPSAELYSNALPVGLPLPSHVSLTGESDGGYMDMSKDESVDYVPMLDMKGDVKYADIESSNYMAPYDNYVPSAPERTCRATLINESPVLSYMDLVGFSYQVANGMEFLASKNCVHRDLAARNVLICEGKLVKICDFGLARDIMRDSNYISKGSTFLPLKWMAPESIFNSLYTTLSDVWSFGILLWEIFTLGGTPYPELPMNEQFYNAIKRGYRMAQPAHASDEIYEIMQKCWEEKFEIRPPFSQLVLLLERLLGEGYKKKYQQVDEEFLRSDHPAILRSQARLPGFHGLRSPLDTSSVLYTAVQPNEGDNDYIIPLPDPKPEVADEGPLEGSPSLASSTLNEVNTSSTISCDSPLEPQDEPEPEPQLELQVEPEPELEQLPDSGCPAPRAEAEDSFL
The experiment in a line: Off-chip Mobility Shift Assay, kinase inhibition. Type of assay: biochemical. As to conditions: at 10 nM; recombinant PDGFRβ; read-out: inhibition.

Assay [12] concerns the target T10, LCK (Homo sapiens, UniProt P06239).
T10 construct: purchased Carna Biosciences, Inc
The assay can be described thus: Off-chip Mobility Shift Assay, kinase inhibition. Type of assay: biochemical. As to conditions: recombinant LCK; for inhibition at 0.001 µM: at 1 nM; for inhibition at 0.01 µM: at 10 nM.

For assay [13], the target named is T11, BTK (Homo sapiens, UniProt Q06187).
T11 construct: purchased Carna Biosciences, Inc
The experiment in a line: Off-chip Mobility Shift Assay, kinase inhibition. Type of assay: biochemical. Conditions: recombinant BTK; for inhibition at 0.001 µM: at 1 nM; for inhibition at 0.01 µM: at 10 nM.

In assay [14] the target is T12, YES (Homo sapiens, UniProt P07947).
T12 construct: purchased Carna Biosciences, Inc
The assay can be described thus: Off-chip Mobility Shift Assay, kinase inhibition. The format is biochemical. As to conditions: recombinant YES; for inhibition at 0.001 µM: at 1 nM; for inhibition at 0.01 µM: at 10 nM.

For assay [15], the target named is T13, LYNa (Homo sapiens, UniProt P07948).
T13 construct: purchased Carna Biosciences, Inc
The assay can be described thus: Off-chip Mobility Shift Assay, kinase inhibition. As to conditions: recombinant LYNa; for inhibition at 0.001 µM: at 1 nM; for inhibition at 0.01 µM: at 10 nM, read-out: inhibition. Type of assay: biochemical.

T8 sequence (P07333 20-972): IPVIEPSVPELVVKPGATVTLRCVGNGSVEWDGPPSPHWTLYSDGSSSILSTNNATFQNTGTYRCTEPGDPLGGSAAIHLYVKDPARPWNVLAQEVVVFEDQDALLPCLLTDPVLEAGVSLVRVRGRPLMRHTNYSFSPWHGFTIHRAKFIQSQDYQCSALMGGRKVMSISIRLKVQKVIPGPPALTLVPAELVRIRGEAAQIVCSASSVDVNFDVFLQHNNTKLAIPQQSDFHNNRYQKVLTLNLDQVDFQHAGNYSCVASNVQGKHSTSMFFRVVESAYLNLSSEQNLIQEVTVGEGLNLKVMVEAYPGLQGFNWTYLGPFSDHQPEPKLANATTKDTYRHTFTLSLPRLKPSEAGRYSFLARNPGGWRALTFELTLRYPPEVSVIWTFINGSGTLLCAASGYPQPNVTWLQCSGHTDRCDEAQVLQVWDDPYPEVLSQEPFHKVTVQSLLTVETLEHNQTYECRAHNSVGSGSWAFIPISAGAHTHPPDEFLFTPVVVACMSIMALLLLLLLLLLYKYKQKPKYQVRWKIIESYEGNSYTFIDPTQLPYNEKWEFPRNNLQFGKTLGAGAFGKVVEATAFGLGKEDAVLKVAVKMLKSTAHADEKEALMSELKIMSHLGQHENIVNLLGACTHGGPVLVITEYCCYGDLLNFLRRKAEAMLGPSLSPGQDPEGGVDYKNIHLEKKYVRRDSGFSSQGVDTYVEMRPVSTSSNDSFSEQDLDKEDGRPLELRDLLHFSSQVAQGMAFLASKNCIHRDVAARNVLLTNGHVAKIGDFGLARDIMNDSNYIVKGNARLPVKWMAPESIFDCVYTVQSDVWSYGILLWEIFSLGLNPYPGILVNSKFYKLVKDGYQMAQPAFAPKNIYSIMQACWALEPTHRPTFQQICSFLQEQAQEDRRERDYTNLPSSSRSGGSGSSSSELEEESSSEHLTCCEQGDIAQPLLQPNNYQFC
T7 sequence (P16234 24-1089): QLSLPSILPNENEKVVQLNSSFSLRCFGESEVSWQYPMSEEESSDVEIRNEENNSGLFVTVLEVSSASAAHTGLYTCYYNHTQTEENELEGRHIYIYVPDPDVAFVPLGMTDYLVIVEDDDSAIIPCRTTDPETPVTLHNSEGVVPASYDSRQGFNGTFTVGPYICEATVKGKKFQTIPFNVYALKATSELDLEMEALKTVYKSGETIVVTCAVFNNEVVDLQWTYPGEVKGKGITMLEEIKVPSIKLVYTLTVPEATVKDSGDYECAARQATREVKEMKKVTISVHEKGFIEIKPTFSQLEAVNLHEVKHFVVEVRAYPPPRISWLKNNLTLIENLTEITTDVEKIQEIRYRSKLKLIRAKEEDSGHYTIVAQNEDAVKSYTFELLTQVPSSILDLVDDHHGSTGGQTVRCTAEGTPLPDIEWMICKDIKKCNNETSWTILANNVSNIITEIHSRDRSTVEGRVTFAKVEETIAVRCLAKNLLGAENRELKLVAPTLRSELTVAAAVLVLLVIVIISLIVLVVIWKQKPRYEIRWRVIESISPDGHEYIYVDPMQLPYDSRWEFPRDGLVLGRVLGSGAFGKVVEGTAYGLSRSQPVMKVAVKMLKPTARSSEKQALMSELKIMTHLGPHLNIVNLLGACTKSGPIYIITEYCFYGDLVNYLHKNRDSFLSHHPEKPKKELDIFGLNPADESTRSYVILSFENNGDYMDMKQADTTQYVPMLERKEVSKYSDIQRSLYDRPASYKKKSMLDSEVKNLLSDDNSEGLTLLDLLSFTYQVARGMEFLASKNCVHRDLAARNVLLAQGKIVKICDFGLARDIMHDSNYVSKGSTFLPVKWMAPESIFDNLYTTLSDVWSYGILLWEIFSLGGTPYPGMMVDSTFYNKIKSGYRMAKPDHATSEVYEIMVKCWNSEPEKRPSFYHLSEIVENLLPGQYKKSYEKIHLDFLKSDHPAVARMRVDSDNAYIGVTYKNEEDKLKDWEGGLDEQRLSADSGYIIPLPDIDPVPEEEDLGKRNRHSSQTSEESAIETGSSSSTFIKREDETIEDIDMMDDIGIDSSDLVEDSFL
T10 sequence (P06239 whole entry): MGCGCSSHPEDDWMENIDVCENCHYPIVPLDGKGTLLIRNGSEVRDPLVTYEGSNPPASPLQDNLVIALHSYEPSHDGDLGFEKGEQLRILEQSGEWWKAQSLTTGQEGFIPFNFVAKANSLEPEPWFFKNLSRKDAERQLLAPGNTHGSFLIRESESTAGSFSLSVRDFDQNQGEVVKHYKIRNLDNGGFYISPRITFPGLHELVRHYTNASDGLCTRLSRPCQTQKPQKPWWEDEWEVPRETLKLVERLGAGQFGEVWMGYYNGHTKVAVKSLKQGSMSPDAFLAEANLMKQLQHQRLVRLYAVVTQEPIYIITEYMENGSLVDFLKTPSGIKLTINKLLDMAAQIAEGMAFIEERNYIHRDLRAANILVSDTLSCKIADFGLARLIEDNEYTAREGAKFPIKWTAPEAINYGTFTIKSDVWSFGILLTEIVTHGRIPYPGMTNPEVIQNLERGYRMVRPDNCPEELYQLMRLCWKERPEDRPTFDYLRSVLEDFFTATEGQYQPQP

As usually defined, the inhibition is the share of the control response that was lost under treatment. One may read the IC50 as the concentration needed to halve the response being measured. As for `[2H]c1cc(C)c(NC(=O)c2cnc(Nc3cc(N4CC[C@@H](N)C4)nc(C)n3)s2)c(Cl)c1` [Compound VII, N-(2-chloro-4-deutero-6-methylphenyl)-2-[[2-methyl-6-((R)-3-aminopyrrolidin-1-yl)pyrimidin-4-yl]amino]thiazole-5-carboxamide], the “activity to inhibit kinases” value in assay [1] is listed as “potent activity”. Also, the inhibition at 0.01 µM in [2], in assay [3], in assay [5], in assay [6], in assay [7] and in [8] was above 50% in each case. The inhibition at 0.01 µM in [9], in assay [10], in assay [11], in assay [12], in [13] and in assay [14] was above 50% throughout. In [15], the inhibition at 0.01 µM was above 50%. In addition, the IC50 in [4] is below 20 nM. In addition, the inhibition at 0.001 µM in assay [5], in assay [8], in assay [12], in assay [13], in assay [14] and in assay [15] was above 50% each time.

For `Cc1nc(Nc2ncc(C(=O)Nc3c(C)cccc3Cl)s2)cc(N2CCCCC2)n1` [Compound VIII, N-(2-chloro-6-methylphenyl)-2-[[2-methyl-6-(piperidin-1-yl)pyrimidin-4-yl]amino]thiazole-5-carboxamide], in assay [1], the “activity to inhibit kinases” value is “potent activity”. In addition, the inhibition at 0.01 µM in assay [2], in [3], in [5], in assay [6], in assay [7] and in assay [8] was above 50% each time. Moreover, the inhibition at 0.01 µM in [9], in assay [10], in assay [11], in assay [12], in [13] and in assay [14] was above 50% in each case. Moreover, in assay [15], the inhibition at 0.01 µM was above 50%. Also, in assay [4], the IC50 is below 20 nM. Moreover, the inhibition at 0.001 µM in assay [5], in assay [8], in [12], in assay [13], in [14] and in assay [15] was above 50% each time.

Take `Cc1nc(Nc2ncc(C(=O)Nc3c(C)cccc3Cl)s2)cc(N2CC[C@H](O)C2)n1` [Compound X, N-(2-chloro-6-methylphenyl)-2-[[2-methyl-6-((S)-3-hydroxypyrrolidin-1-yl)pyrimidin-4-yl]amino]thiazole-5-carboxamide]: in assay [1], the “activity to inhibit kinases” value is recorded as “potent activity”. Moreover, the inhibition at 0.01 µM in [2], in [3], in assay [5], in assay [6], in assay [7] and in assay [8] was above 50% each time. For the same compound, the inhibition at 0.01 µM in [9], in assay [10], in assay [11], in assay [12], in [13] and in assay [14] was above 50% in each case. Also, in assay [15], the inhibition at 0.01 µM is above 50%. In addition, the IC50 in [4] is below 20 nM. In addition, the inhibition at 0.001 µM in assay [5], in assay [8], in assay [12], in assay [13], in [14] and in assay [15] was above 50% throughout.

`Cc1nc(Nc2ncc(C(=O)Nc3c(C)cccc3Cl)s2)cc(N2CC[C@@H](O)C2)n1` [Compound XI, N-(2-chloro-6-methylphenyl)-2-[[2-methyl-6-((R)-3-hydroxypyrrolidin-1-yl)pyrimidin-4-yl]amino]thiazole-5-carboxamide]: the “activity to inhibit kinases” value in assay [1] is listed as “potent activity”. Further, the inhibition at 0.01 µM in assay [2], in [3], in assay [5], in assay [6], in assay [7] and in assay [8] was above 50% in each case. Further, the inhibition at 0.01 µM in assay [9], in assay [10], in assay [11], in [12], in assay [13] and in assay [14] was above 50% in each case. Also, in assay [15], the inhibition at 0.01 µM was above 50%. Besides, the IC50 in assay [4] was below 20 nM. The inhibition at 0.001 µM in assay [5], in assay [8], in assay [12], in assay [13], in assay [14] and in [15] was above 50% in each case.

Source of the values: patent US10479786B2, “Protein kinase inhibitors” (Princeton Drug Discovery Inc, priority 2016, dated 2019).
